target: T1, recombinant IL4I1 (Homo sapiens, UniProt Q96RQ9); assay: IL4I1 Enzymatic Assay (Amplex Red/HRP coupled detection of H2O2, fluorescence); format: biochemical; settings: 1 nM recombinant IL4I1; four-hour pre-incubation with compound; 1 mM each Phe, Tyr, Trp; ten-point titration
T1 construct: purchased R&D Systems 5684-AO-020
T1 sequence (Q96RQ9 22-567): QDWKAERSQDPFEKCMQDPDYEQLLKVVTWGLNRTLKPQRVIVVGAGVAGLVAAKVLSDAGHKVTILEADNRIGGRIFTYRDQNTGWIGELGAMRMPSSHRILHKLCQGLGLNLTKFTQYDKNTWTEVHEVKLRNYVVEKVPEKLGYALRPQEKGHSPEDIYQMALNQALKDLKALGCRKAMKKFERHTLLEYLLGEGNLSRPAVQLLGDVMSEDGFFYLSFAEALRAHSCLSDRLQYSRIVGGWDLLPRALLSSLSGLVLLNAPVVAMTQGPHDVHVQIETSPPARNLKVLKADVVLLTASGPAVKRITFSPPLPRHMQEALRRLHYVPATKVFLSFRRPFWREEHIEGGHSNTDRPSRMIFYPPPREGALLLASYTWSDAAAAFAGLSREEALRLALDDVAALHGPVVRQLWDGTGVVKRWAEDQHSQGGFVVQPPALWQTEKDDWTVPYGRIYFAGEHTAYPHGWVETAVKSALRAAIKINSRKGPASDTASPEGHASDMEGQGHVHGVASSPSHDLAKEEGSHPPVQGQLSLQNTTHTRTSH
How it was run: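 Recombinant IL4I1 (1 nM final) pre-incubated 4 h at ambient temperature with compound (0.5% DMSO) in 50 mM Hepes pH 7.0, 0.005% Tween20; reaction started with 1 mM each Phe/Tyr/Trp plus excess Amplex Red/HRP, run 120 min. H2O2 read as resorufin fluorescence; EC50 from 10-point four-parameter fit.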

| SMILES | EC50 [nM] |
| --- | --- |
| Cc1ccc(-n2cc(C(=O)NCc3ccc(-c4cc(F)ccc4F)nn3)nn2)c(C)n1 [Example 123, N-((6-(2,5-difluorophenyl)pyridazin-3-yl)methyl)-1-(2,6-dimethylpyridin-3-yl)-1H-1,2,3-triazole-4-carboxamide] | 223 |
| Cn1cc(C(=O)NCc2nnc(-c3ccccc3)s2)nn1 [Example 19, 1-methyl-N-[(5-phenyl-1,3,4-thiadiazol-2-yl)methyl]triazole-4-carboxamide] | 18 |
| O=C(NCc1nnc(-c2ccccc2)s1)c1cn(C2C[C@@H]2C(F)F)nn1 (single isomer, unassigned) [Example 144, Trans-1-(-2-(difluoromethyl)cyclopropyl]-N-[(5-phenyl-1,3,4-thiadiazol-2-yl)methyl]-1H-1,2,3-triazole-4-carboxamide] | 383 |
| CCn1cc(C(=O)NCc2nnc(-c3ccccc3)s2)nn1 [Example 72, 1-ethyl-N-((5-phenyl-1,3,4-thiadiazol-2-yl)methyl)-1H-1,2,3-triazole-4-carboxamide] | 3 |
| CC(F)(F)Cn1cc(C(=O)NCc2nnc(-c3ccccc3)s2)nn1 [Example 211, 1-(2,2-difluoropropyl)-N-((5-phenyl-1,3,4-thiadiazol-2-yl)methyl)-1H-1,2,3-triazole-4-carboxamide] | 14 |
| O=C(NCc1nnc(-c2ccccc2)s1)c1cn(CC(O)C(F)F)nn1 (single isomer, unassigned) [Example 138, 1-(3,3-difluoro-2-hydroxypropyl)-N-((5-phenyl-1,3,4-thiadiazol-2-yl)methyl)-1H-1,2,3-triazole-4-carboxamide] | 25 |
| CCn1ccc(C(=O)NCc2nnc(-c3ccccc3)s2)c1 [Example 18, 1-ethyl-N-[(5-phenyl-1,3,4-thiadiazol-2-yl)methyl]pyrrole-3-carboxamide] | 40 |
| Cc1ccc(-n2cc(C(=O)NCc3nnc(-c4ccc(F)cc4)s3)nn2)c(C)n1 [Example 227, 1-(2,6-dimethylpyridin-3-yl)-N-{[5-(4-fluorophenyl)-1,3,4-thiadiazol-2-yl]methyl}-1H-1,2,3-triazole-4-carboxamide] | 69 |
| CC(NC(=O)c1cn(CC(F)F)nn1)c1ccc(-c2ccccc2)nn1 (single isomer, unassigned) [Example 349, 1-(2,2-difluoroethyl)-N-(1-(6-phenylpyridazin-3-yl)ethyl)-1H-1,2,3-triazole-4-carboxamide] | 14 |
| Cc1ccc(-n2cc(C(=O)NCc3cc(-c4ccncc4)no3)nn2)c(C)n1 [Example 314, 1-(2,6-dimethylpyridin-3-yl)-N-((3-(pyridin-4-yl)isoxazol-5-yl)methyl)-1H-1,2,3-triazole-4-carboxamide] | 12 |
| CNC(=O)C1(n2cc(C(=O)NCc3nnc(-c4ccccc4)s3)nn2)CC1 [Example 162, 1-(1-(methylcarbamoyl)cyclopropyl)-N-((5-phenyl-1,3,4-thiadiazol-2-yl)methyl)-1H-1,2,3-triazole-4-carboxamide] | 120 |
| CCOCCn1cc(C(=O)NCc2nnc(-c3ccccc3)s2)nn1 [Example 91, 1-(2-ethoxyethyl)-N-((5-phenyl-1,3,4-thiadiazol-2-yl)methyl)-1H-1,2,3-triazole-4-carboxamide] | 27 |
| CC(O)c1cc(C(=O)NCc2nnc(-c3ccccc3)s2)on1 (single isomer, unassigned) [Example 329, 3-(1-hydroxyethyl)-N-((5-phenyl-1,3,4-thiadiazol-2-yl)methyl)isoxazole-5-carboxamide] | 149 |
| O=C(NCc1cc(-c2ccncc2)on1)c1cn(C2CC2)nn1 [Example 246, 1-cyclopropyl-N-((5-(pyridin-4-yl)isoxazol-3-yl)methyl)-1H-1,2,3-triazole-4-carboxamide] | 104 |
| Cn1cc(C(=O)NCc2cc(-c3ccccc3Cl)no2)nn1 [Example 224, N-{[3-(2-chlorophenyl)-1,2-oxazol-5-yl]methyl}-1-methyl-1H-1,2,3-triazole-4-carboxamide] | 832 |
| Cn1cc(C(=O)NCc2cc(-c3cccc(F)c3)no2)nn1 [Example 226, N-{[3-(3-fluorophenyl)-1,2-oxazol-5-yl]methyl}-1-methyl-1H-1,2,3-triazole-4-carboxamide] | 349 |
| C[C@H](O)[C@@H](C)n1cc(C(=O)NCc2nnc(-c3ccccc3)s2)nn1 [Example 169, 1-((2R,3S)-3-hydroxybutan-2-yl)-N-((5-phenyl-1,3,4-thiadiazol-2-yl)methyl)-1H-1,2,3-triazole-4-carboxamide] | 68 |

| SMILES | EC50 [nM] |
| --- | --- |
| CC(C#N)n1cc(C(=O)NCc2cc(-c3ccncc3)on2)nn1 (single isomer, unassigned) [Example 276, 1-(1-cyanoethyl)-N-((5-(pyridin-4-yl)isoxazol-3-yl)methyl)-1H-1,2,3-triazole-4-carboxamide] | 113 |
| CCn1cc(C(=O)NCc2nnc(-c3ccccc3)s2)cn1 [Example 43, 1-ethyl-N-[(5-phenyl-1,3,4-thiadiazol-2-yl)methyl]pyrazole-4-carboxamide] | 177 |
| Cn1c(C(=O)NCc2nnc(-c3ccccc3)s2)cc2ccccc21 [Example 54, 1-methyl-N-((5-phenyl-1,3,4-thiadiazol-2-yl)methyl)-1H-indole-2-carboxamide] | 322 |
| Cc1ccc(-n2cc(C(=O)NCc3ccc(-c4ccccc4Cl)nn3)nn2)c(C)n1 [Example 119, N-((6-(2-chlorophenyl)pyridazin-3-yl)methyl)-1-(2,6-dimethylpyridin-3-yl)-1H-1,2,3-triazole-4-carboxamide] | 482 |
| O=C(NCc1nnc(-c2ccccc2)s1)c1csc(Cc2ccccc2)n1 [Example 16, 2-benzyl-N-((5-phenyl-1,3,4-thiadiazol-2-yl)methyl)thiazole-4-carboxamide] | 84 |
| CC1CC1n1cc(C(=O)NCc2nnc(-c3ccccc3)s2)nn1 (single isomer, unassigned) [Example 133, Cis-1-(2-methylcyclopropyl)-N-((5-phenyl-1,3,4-thiadiazol-2-yl)methyl)-1H-1,2,3-triazole-4-carboxamide] | 92 |
| N#CC1(n2cc(C(=O)NCc3nnc(-c4ccccc4)s3)nn2)CC1 [Example 160, 1-(1-cyanocyclopropyl)-N-((5-phenyl-1,3,4-thiadiazol-2-yl)methyl)-1H-1,2,3-triazole-4-carboxamide] | 36 |
| O=C(NCc1nnc(-c2ccccc2)s1)c1cn([C@@H]2C[C@@H]2C(F)F)nn1 (single isomer, unassigned) [Example 145, cis-1-(-2-(difluoromethyl)cyclopropyl]-N-[(5-phenyl-1,3,4-thiadiazol-2-yl)methyl]-1H-1,2,3-triazole-4-carboxamide] | 5 |
| Cn1ccc(C(=O)NCc2nnc(-c3ccccc3)s2)c1 [Example 51, 1-methyl-N-[(5-phenyl-1,3,4-thiadiazol-2-yl)methyl]pyrrole-3-carboxamide] | 118 |
| O=C(NCc1nnc(-c2ccccc2)s1)c1cc2c(o1)CCNC2=O [Example 56, 4-oxo-N-[(5-phenyl-1,3,4-thiadiazol-2-yl)methyl]-6,7-dihydro-5H-furo[3,2-c]pyridine-2-carboxamide] | 234 |
| CC(CC(F)(F)F)n1cc(C(=O)NCc2nnc(-c3ccccc3)s2)nn1 (single isomer, unassigned) [Example 63, N-((5-phenyl-1,3,4-thiadiazol-2-yl)methyl)-1-(4,4,4-trifluorobutan-2-yl)-1H-1,2,3-triazole-4-carboxamide] | 18 |
| O=C(NCc1nnc(-c2ccccc2)s1)c1cn([C@H]2COC[C@@H]2F)nn1 [Example 199, 1-((3S,4R)-4-fluorotetrahydrofuran-3-yl)-N-((5-phenyl-1,3,4-thiadiazol-2-yl)methyl)-1H-1,2,3-triazole-4-carboxamide] | 140 |
| Cc1nc(C(C)(C)O)ccc1-n1cc(C(=O)NCc2nnc(-c3ccccc3)s2)nn1 [Example 334, 1-(6-(2-hydroxypropan-2-yl)-2-methylpyridin-3-yl)-N-((5-phenyl-1,3,4-thiadiazol-2-yl)methyl)-1H-1,2,3-triazole-4-carboxamide] | 446 |
| O=C(NCc1nnc(-c2ccccc2)s1)c1cn(CC2(O)CCC2)nn1 [Example 137, 1-((1-hydroxycyclobutyl)methyl)-N-((5-phenyl-1,3,4-thiadiazol-2-yl)methyl)-1H-1,2,3-triazole-4-carboxamide] | 574 |
| O=C(NCc1ccc(-c2ccccc2)nn1)c1cn(C2COC2)nn1 [Example 290, 1-(oxetan-3-yl)-N-((6-phenylpyridazin-3-yl)methyl)-1H-1,2,3-triazole-4-carboxamide] | 209 |
| Cc1ccc(-n2cc(C(=O)NCc3nnc(-c4cccc(F)c4C)s3)nn2)c(C)n1 [Example 110, 1-(2,6-dimethylpyridin-3-yl)-N-((5-(3-fluoro-2-methylphenyl)-1,3,4-thiadiazol-2-yl)methyl)-1H-1,2,3-triazole-4-carboxamide] | 312 |
| N#CCCCCn1cc(C(=O)NCc2nnc(-c3ccccc3)s2)nn1 [Example 90, 1-(4-cyanobutyl)-N-((5-phenyl-1,3,4-thiadiazol-2-yl)methyl)-1H-1,2,3-triazole-4-carboxamide] | 27 |

Source: patent US20240336608A1, “IL4I1 INHIBITORS AND METHODS OF USE” (Merck Sharp & Dohme LLC, priority 2023, published 2024)
